# “Also recorded” adds a separate entry of the source. Like-named read-outs stand apart in the source and are kept apart here.
# Assays:
# clinical = conditions: human, in vivo
# Method: Following oral administration of NURTEC ODT, rimegepant is absorbed with the maximum concentration at 1.5 hours.
# The steady state volume of distribution of rimegepant is 120 L. Plasma protein binding of rimegepant is approximately 96%.
# (§1) Following oral administration of [^14C]-rimegepant to healthy male subjects, 78% of the total radioactivity was recovered in feces and 24% in urine. Unchanged rimegepant is the major single component in excreted feces (42%) and urine (51%).
# [1] = Excretion after oral [14C]-rimegepant; assay type: in vivo, human; conditions: oral [14C]-rimegepant, healthy male subjects
# Source text: as §1
# [2] = Dedicated clinical study, pharmacokinetics in renal impairment; assay type: in vivo, human
# Method: In a dedicated clinical study comparing the pharmacokinetics of rimegepant in subjects with mild (estimated creatinine clearance [CLcr] 60-89 mL/min), moderate (CLcr 30-59 mL/min), and severe (CLcr 15-29 mL/min) renal impairment to that with normal subjects (healthy matched control), the exposure of rimegepant following single 75 mg dose was approximately 40% higher in subjects with moderate renal impairment. […] NURTEC ODT has not been studied in patients with end-stage renal disease (CLcr<15 mL/min) [see Use in Specific Populations].
# [3] = Dedicated clinical study, pharmacokinetics in hepatic impairment; assay type: in vivo, human
# Method: In a dedicated clinical study comparing the pharmacokinetics of rimegepant in subjects with mild, moderate, and severe hepatic impairment to that with normal subjects (healthy matched control), the exposure of rimegepant (Cmax and AUC) following a single 75 mg dose was approximately 2-fold higher in subjects with severe impairment (Child-Pugh class C).
# CYP2C9 [4] = biological target: T1, CYP2C9 (Homo sapiens, UniProt P11712); experiment: In vitro enzyme study: substrate / metabolism; assay type: in vitro ADME; conditions: listed as Rimegepant
# Source text: (§2) Rimegepant is a substrate of CYP3A4 and CYP2C9 [see In Vivo Studies].
# CYP3A4 [5] = biological target: T2, CYP3A4 (Homo sapiens, UniProt P08684); experiment: In vitro enzyme study: substrate / metabolism; assay type: in vitro ADME
# Source text: as §2
# CYP1A2 = CYP1A2 (Homo sapiens, UniProt P05177); experiment: In vitro enzyme inhibition; assay type: in vitro ADME; conditions: at clinically relevant concentrations
# Source text: as §2
# CYP2B6 = CYP2B6 (Homo sapiens, UniProt P20813); experiment: In vitro enzyme inhibition; assay type: in vitro ADME; conditions: at clinically relevant concentrations
# Source text: as §2
# CYP2C19 = CYP2C19 (Homo sapiens, UniProt P33261); experiment: In vitro enzyme inhibition; assay type: in vitro ADME; conditions: at clinically relevant concentrations
# Source text: as §2
# CYP2C9 [6] = biological target: T1, CYP2C9; experiment: In vitro enzyme inhibition; assay type: in vitro ADME; conditions: at clinically relevant concentrations
# Source text: as §2
# CYP2D6 = CYP2D6 (Homo sapiens, UniProt P10635); experiment: In vitro enzyme inhibition; assay type: in vitro ADME; conditions: at clinically relevant concentrations
# Source text: as §2
# CYP3A4 [7] = biological target: T2, CYP3A4; experiment: In vitro enzyme inhibition; assay type: in vitro ADME
# Source text: as §2
# UGT1A1 = UGT1A1 (Homo sapiens, UniProt P22309); experiment: In vitro enzyme inhibition; assay type: in vitro ADME; conditions: at clinically relevant concentrations
# Source text: as §2
# MATE2-K = MATE2-K (Homo sapiens, UniProt Q86VL8); experiment: In vitro transporter inhibition; assay type: in vitro ADME; conditions: at clinically relevant concentrations
# OATP1B1 = OATP1B1 (Homo sapiens, UniProt Q9Y6L6); experiment: In vitro transporter inhibition; assay type: in vitro ADME
# [8] = Pharmacokinetic interactions with other drugs (oral contraceptives, midazolam, sumatriptan); assay type: in vivo, human; conditions: with oral contraceptives (norelgestromin, ethinyl estradiol), midazolam, or sumatriptan
# CYP2C9 [9] = experiment: Pharmacogenomics: pharmacokinetics by CYP2C9 genotype; assay type: in vivo, human; conditions: CYP2C9 intermediate metabolizers (n=43) compared to normal metabolizers (N=72)
# Source text: CYP2C9 activity is reduced in individuals with genetic variants such as the CYP2C9*2 and CYP2C9*3 alleles. Rimegepant Cmax and AUC0-inf were similar in CYP2C9 intermediate metabolizers (i.e., *1/*2, *2/*2, *1/*3, n=43) as compared to normal metabolizers (i.e., *1/*1, N=72). Adequate PK data are not available from CYP2C9 poor metabolizers (i.e., *2/*3).
# Tg.rasH2 mice = experiment: Carcinogenesis study, oral, 26 weeks, Tg.rasH2 mice; assay type: in vivo, mouse; conditions: oral 0, 10, 100, or 300 mg/k/day for 26 weeks
# [10] = tested on: bacterial reverse-mutation; experiment: Bacterial reverse-mutation assay (in vitro); assay type: cell-based
# Source text: Rimegepant was negative in in vitro (bacterial reverse-mutation, chromosomal aberration in Chinese hamster ovary cells) and in vivo (rat micronucleus) assays.
# CYP3A4 [11] = biological target: T2, CYP3A4; experiment: Expected interactions with moderate or weak CYP3A4 inhibitors and inducers; assay type: in vivo; parameters: endogenous in cells; host or cells: in vivo, endogenous enzyme of the study subjects
# Method: The concomitant administration of rimegepant with a moderate inhibitor of CYP3A4 may increase rimegepant exposures (AUC) by less than 2-fold [see Drug Interactions].
# No dedicated drug interaction study was conducted to assess the effect of concomitant administration of a moderate or weak inducer of CYP3A4 on the pharmacokinetics of rimegepant.
# T2 sequence (P08684 whole entry): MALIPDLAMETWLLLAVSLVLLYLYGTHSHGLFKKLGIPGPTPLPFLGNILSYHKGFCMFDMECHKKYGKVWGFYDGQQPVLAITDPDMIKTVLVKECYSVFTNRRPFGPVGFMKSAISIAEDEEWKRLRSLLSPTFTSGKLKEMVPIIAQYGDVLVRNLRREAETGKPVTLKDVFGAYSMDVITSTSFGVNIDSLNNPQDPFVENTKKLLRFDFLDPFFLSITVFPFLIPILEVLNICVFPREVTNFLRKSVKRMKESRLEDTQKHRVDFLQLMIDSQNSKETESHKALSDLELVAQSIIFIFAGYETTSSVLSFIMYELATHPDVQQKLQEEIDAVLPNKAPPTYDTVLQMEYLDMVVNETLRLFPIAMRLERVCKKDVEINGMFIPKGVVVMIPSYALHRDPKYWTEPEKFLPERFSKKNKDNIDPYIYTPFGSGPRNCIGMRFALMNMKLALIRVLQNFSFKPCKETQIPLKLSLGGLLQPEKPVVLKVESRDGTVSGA
# T1 sequence (P11712 whole entry): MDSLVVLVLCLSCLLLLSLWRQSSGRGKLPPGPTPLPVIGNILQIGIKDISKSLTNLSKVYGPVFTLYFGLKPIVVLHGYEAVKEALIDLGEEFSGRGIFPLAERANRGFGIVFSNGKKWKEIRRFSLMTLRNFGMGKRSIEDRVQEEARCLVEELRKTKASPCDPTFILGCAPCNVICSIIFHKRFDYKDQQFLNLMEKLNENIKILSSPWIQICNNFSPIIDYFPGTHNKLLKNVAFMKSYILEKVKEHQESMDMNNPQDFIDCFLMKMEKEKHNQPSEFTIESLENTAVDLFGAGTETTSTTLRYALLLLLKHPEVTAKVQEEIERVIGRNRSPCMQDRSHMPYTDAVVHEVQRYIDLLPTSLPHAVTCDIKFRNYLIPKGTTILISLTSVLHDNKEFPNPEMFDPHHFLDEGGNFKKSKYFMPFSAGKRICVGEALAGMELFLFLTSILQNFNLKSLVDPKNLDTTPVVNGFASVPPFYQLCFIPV
# Sequence of CYP2C19 (P33261 whole entry): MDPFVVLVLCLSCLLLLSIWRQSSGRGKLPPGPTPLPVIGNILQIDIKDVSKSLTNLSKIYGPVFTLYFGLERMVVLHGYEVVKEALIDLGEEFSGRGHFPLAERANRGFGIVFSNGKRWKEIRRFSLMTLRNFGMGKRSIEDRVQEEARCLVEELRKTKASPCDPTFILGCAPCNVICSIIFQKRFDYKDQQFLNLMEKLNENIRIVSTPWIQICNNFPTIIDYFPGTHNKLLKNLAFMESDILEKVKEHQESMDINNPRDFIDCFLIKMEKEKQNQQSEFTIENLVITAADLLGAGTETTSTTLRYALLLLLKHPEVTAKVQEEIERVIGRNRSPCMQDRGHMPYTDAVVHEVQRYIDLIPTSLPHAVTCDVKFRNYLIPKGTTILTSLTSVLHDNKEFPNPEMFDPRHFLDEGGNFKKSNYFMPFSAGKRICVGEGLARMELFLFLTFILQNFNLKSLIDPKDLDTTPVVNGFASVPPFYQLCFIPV
# Sequence of MATE2-K (Q86VL8 1-566 isoform Q86VL8-3): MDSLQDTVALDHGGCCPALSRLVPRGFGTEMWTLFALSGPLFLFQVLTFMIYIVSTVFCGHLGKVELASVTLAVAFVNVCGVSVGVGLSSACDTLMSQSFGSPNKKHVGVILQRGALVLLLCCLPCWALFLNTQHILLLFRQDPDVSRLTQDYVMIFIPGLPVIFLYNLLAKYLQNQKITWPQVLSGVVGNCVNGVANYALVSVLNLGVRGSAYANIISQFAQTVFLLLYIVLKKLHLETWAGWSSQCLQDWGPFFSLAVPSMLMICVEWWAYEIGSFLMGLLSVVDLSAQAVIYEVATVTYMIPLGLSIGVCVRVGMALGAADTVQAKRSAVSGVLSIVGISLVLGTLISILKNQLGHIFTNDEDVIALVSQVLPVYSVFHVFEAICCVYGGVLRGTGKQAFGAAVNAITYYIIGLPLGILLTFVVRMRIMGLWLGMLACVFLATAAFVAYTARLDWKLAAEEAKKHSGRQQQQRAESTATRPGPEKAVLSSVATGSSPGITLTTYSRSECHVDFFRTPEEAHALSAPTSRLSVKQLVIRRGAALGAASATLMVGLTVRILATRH
# Sequence of OATP1B1 (Q9Y6L6 whole entry): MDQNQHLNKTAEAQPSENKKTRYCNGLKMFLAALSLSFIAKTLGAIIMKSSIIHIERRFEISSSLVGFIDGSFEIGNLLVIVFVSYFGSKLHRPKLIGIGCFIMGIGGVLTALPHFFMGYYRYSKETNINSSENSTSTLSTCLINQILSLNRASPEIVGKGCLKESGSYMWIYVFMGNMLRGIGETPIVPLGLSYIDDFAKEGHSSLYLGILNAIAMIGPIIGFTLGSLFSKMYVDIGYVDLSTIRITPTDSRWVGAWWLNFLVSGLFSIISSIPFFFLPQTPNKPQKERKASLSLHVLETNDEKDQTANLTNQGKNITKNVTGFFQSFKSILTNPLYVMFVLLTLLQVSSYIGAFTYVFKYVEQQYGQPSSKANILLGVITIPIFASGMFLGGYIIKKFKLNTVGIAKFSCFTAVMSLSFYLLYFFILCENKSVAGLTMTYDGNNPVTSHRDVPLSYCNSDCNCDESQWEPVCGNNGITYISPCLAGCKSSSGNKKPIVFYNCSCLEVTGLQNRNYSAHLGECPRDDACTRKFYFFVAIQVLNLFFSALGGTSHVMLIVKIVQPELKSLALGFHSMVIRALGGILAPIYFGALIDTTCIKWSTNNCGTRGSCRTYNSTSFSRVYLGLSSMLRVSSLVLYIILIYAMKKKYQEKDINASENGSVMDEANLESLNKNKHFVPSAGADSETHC
# Sequence of CYP1A2 (P05177 whole entry): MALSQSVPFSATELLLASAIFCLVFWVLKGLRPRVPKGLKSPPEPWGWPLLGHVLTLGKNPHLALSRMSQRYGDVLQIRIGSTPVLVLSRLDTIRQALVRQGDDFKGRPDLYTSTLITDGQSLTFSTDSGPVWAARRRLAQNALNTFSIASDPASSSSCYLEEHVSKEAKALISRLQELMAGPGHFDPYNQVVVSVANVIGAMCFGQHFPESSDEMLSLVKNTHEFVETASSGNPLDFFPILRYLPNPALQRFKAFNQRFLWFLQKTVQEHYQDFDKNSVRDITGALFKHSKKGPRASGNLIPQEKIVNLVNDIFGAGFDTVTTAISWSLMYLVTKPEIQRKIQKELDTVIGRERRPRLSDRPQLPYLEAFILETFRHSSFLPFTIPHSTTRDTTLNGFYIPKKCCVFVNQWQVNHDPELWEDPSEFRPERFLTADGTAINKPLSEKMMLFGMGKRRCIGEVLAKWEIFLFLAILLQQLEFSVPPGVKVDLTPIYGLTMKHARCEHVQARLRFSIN
# Sequence of UGT1A1 (P22309 26-533): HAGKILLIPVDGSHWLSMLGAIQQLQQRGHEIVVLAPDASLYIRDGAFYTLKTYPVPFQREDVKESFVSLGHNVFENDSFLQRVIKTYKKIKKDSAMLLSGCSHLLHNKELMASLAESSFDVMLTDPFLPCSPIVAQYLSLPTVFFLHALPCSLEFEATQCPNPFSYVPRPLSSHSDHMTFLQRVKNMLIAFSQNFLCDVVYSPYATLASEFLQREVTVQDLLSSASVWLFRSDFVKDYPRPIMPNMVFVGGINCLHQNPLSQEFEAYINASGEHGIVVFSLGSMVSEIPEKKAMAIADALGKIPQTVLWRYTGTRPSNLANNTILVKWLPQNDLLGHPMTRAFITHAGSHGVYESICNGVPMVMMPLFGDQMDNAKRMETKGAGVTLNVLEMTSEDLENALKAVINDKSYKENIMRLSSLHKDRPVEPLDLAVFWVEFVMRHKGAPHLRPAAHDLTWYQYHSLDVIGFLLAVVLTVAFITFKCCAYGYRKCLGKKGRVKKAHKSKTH
# Sequence of CYP2D6 (P10635 whole entry): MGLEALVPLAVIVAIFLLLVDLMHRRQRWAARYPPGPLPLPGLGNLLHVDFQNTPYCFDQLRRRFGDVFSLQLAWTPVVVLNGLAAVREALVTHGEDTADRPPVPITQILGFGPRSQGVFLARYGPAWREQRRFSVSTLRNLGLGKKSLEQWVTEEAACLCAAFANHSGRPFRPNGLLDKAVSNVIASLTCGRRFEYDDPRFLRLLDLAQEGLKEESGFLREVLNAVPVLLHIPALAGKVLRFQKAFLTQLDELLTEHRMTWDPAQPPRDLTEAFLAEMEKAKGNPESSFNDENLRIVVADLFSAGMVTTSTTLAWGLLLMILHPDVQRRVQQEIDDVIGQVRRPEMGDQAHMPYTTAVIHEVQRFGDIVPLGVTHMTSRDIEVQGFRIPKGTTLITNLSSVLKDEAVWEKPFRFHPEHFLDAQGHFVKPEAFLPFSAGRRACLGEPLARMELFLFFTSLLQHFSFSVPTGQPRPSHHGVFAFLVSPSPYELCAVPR
# Sequence of CYP2B6 (P20813 whole entry): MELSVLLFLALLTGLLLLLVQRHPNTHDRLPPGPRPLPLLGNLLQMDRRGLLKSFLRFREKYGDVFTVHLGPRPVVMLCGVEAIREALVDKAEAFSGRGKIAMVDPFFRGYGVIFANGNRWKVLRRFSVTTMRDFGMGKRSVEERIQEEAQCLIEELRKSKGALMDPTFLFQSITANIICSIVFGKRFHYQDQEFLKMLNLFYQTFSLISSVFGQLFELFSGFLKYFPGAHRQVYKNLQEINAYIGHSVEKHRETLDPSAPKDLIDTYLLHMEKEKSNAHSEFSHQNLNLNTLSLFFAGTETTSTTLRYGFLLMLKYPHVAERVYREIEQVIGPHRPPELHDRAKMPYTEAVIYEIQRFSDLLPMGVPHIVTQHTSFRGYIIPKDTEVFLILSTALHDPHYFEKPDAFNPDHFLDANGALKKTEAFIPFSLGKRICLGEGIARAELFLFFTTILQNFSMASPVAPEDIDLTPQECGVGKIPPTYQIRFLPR
smiles,measurement,setting,value
"N[C@@H]1c2cccnc2[C@H](OC(=O)N2CCC(n3c(=O)[nH]c4ncccc43)CC2)CC[C@H]1c1cccc(F)c1F [rimegepant, (5S,6S,9R)-5-amino-6-(2,3-difluorophenyl)-6,7,8,9-tetrahydro-5H-cyclohepta[b]pyridin-9-yl 4-(2-oxo-2,3-dihydro-1H-imidazo[4,5-b]pyridin-1-yl)-1-piperidinecarboxylate]",eliminated in unchanged form,clinical,~77 % of the dose
same,half-life,clinical,~11 h
same,"major metabolites (i.e., >10%) in plasma",clinical,no major metabolites
same,bioavailability,clinical; po,~64%
same,unchanged rimegepant in excreted feces,[1],42%
same,unchanged rimegepant in excreted urine,[1],51%
same,difference in exposure vs normal renal function,[2]; severe renal impairment (CLcr 15-29 mL/min),no clinically meaningful difference
same,exposure higher than in normal subjects,"[2]; single 75 mg dose, moderate renal impairment (CLcr 30-59 mL/min)",approximately 40%
same,difference in exposure vs normal hepatic function,[3]; mild (Child-Pugh class A) and moderate (Child-Pugh class B) hepatic impairment,no clinically meaningful differences
same,exposure (Cmax and AUC) higher than in normal subjects,"[3]; single 75 mg dose, severe hepatic impairment (Child-Pugh class C)",approximately 2 fold
same,substrate of / metabolized by CYP2C9,CYP2C9 [4],substrate
same,substrate of / metabolized by CYP3A4,CYP3A4 [5],moderately sensitive substrate
same,substrate of / metabolized by CYP3A4,CYP3A4 [5]; listed as Rimegepant,primarily metabolized; also recorded: substrate
same,inhibition of CYP1A2,CYP1A2,not an inhibitor
same,inhibition of CYP2B6,CYP2B6,not an inhibitor
same,inhibition of CYP2C19,CYP2C19,not an inhibitor
same,inhibition of CYP2C9,CYP2C9 [6],not an inhibitor
same,inhibition of CYP2D6,CYP2D6,not an inhibitor
same,inhibition of CYP3A4,CYP3A4 [7],weak inhibitor of CYP3A4 with time-dependent inhibition
same,inhibition of UGT1A1,UGT1A1,not an inhibitor
same,inhibition of MATE2-K,MATE2-K,not an inhibitor
same,inhibition of OATP1B1,OATP1B1,weak inhibitor
same,pharmacokinetic interactions,[8],No significant pharmacokinetic interactions
same,Cmax and AUC0-inf,CYP2C9 [9],similar
same,drug-induced tumors,Tg.rasH2 mice,no evidence of drug-induced tumors
same,"mutagenesis, bacterial reverse-mutation",[10],negative
same,increase of rimegepant exposures (AUC),"CYP3A4 [11]; with a moderate inhibitor of CYP3A4, stated as 'may increase'",less than 2 fold
same,impact on rimegepant exposures,"CYP3A4 [11]; with a weak inhibitor of CYP3A4, no dedicated study conducted",not expected to have a clinically significant impact
same,effect on rimegepant exposure,"CYP3A4 [11]; with moderate inducers of CYP3A4, no dedicated study conducted",significant reduction in rimegepant exposure
